{"source": "patent US20150342933A1", "about": "“APORPHINE ALKALOID DERIVATIVE FOR […]-DEPENDENT PROTEIN KINASE” (ZIH YUAN TANG Biotechnology Co., Ltd, priority 2014, published 2015)", "tested_on": "AMPK", "assay": "AMPK phosphorylation in C2C12 myocytes (Western blot, Phospho-AMPKα Thr172)", "type": "cell-based, mouse", "procedure": "C2C12 skeletal myoblast cell line was purchased from the Food Industry Research and Development Institute (Hsinchu, Taiwan). The C2C12 cell line was a cell line obtained from culturing the leg skeletal muscle of adult C3H mice in a cell incubator under 95% […], 5% CO2, and 37° C. The cells were cultured in a DMEM medium (Gibco/Invitrogen, Carlsbad, Calif.) containing 4.5 mg/mL glucose, 10% fetal bovine serum (FBS; Gibco/Invitrogen, Carlsbad, Calif.), and an antibiotic solution (with final concentrations of penicillin=100 IU/mL and streptomycin=100 μg/mL). When the C2C12 myoblast cells have proliferated to cover seven-tenths of the area in the petri dish, the fetal bovine serum was replaced by 2% horse serum (Gibco/Invitrogen, Carlsbad, Calif.) so as to induce the C2C12 myoblast cells to become the multi-nuclei myocytes. The C2C12 myoblast cells differentiated into myocytes in 4 days, and the culture medium of the cells was replaced with no-serum DMEM 24 hours before the experiments so as to reduce metabolism of the cells.\nThe C2C12 myocytes were treated respectively with 1 μM, 3 μM and 10 μM 1,10-dihydroxyaporphine hydrobromide for 5 and 15 minutes. Then the C2C12 myocytes were rinsed with PBS buffer solution, and RIPA buffer solution containing protease inhibitors (20 mM Tris-HCl (pH 7.4), 100 mM NaCl, 1 mM EDTA, 1 mM EGTA, 0.1% SDS, 0.5% sodium deoxycholate, 1% NP-40, and 100× protease inhibitor cocktail) was added into the cells. The cells were collected and centrifuged on ice. Then, the concentrations of the supernatant samples were adjusted to be the same.\nThe supernatant samples were put through vertical electrophoresis isolation with 8% SDS-PAGE, and the isolated proteins were transferred onto a PVDF blotting membrane. After blotting was completed, the PVDF blotting membrane was removed and blocked for 1 hour under room temperature with a blocking buffer of TBST (Tris-buffered saline with Tween-20) with 5% non-fat milk. Then, the PVDF blotting membrane was placed into a 5% BSA and TBST solution containing the primary monoclonal antibodies Phospho-AMPKα (Thr172) (Cell Signaling) (1:1000) and AMPKα […] (Cell Signaling) (1:1000), respectively, and the primary immunoblotting reaction was performed under 4° C. Then, the PVDF blotting membrane was rinsed 3 times with TBST, and a TBST solution containing the secondary antibody goat anti-rabbit IgG (Perkin Elmer) (1:10000) was added to perform the secondary reaction for one hour under room temperature. Finally, the membrane was rinsed 3 times with TBST before ECL (enhanced chemiluminescence) was added to present color.", "data": [{"smiles": "Br.CN1CCc2ccc(O)c3c2C1Cc1ccc(O)cc1-3", "note": "(stereo not shown) [1,10-dihydroxyaporphine hydrobromide]", "values": [{"measurement": "AMPK phosphorylation, times of that in the control cells", "setting": "3 μM, 5 minutes", "value": 1.33, "unit": "times"}, {"measurement": "AMPK phosphorylation, times of that in the control cells", "setting": "3 μM, 15 minutes", "value": 1.21, "unit": "times"}, {"measurement": "AMPK phosphorylation, times of that in the control cells", "setting": "10 μM, 5 minutes", "value": 1.23, "unit": "times"}, {"measurement": "AMPK phosphorylation, times of that in the control cells", "setting": "10 μM, 15 minutes", "value": 1.65, "unit": "times"}]}]}
